Assay results as given in US20250388602A1 (Genase Therapeutics B.V., priority 2022, published 2025).

Key:
[1] = tested on: ZIKV; assay: anti-ZIKV CPE reduction assay in A549 cells (MTS); assay type: cell-based, ZIKV MR766 prototype strain
Procedure: (§1) The lung cancer epithelial cell line A549 was obtained from the American Type Culture Collection (ATCC; Rockville, MD, USA) and cultured in MEM medium (Gibco BRL, Gaithersburg, MD, USA) with 10% fetal calf serum (FCS; Gibco BRL), 2 mM L-glutamine (Gibco BRL) and 0.075% sodium bicarbonate (Gibco BRL).
(§2) The ZIKV MR766 prototype strain and the DENV-2 laboratory-adapted New Guinea C strain were obtained from ATCC and stocks were grown in the C6/36 mosquito cell line (ATCC). Viral stock titers were determined using plaque assay in BHK-21 cells (ATCC).
(§3) The anti-ZIKV and anti-DENV-2 activity in A549 cells was determined using a tetrazolium-based colorimetric cytopathic effect (CPE) reduction assay. This assay has been described in detail before (Virology. 2021; doi.org/10.1016/j.virol.2021.07.003). […] Three hours after MTS incubation, virus was inactivated using 0.5% Triton X-100 (Thermo Fisher Scientific, Waltham, MA, USA) and the absorbance was then recorded at 490 nm with a 96-well plate reader and compared with four cell control replicates (cells without virus and drugs) and four virus control wells (cells with virus but without drug). […] Absorbance was recorded using the VersaMax ELISA™ microplate reader (Molecular Devices) and analyzed with the Softmax Pro® software (Molecular Devices, Version 4.0). […]

[2] = tested on: Human CYPs; assay: CYP inhibition panel in pooled human liver microsomes, overall statement; assay type: in vitro ADME; details: compared to C-analogue
Procedure: CYP inhibition: Co-incubation of compounds with P450 enzyme-selective substrates was performed using pooled human liver microsomes (Cat. No. H0610, Xenotech), to determine their potential to cause drug-drug interactions. The assay was performed in duplicate. The formation of acetaminophen, 7′-hydoxycoumarin, hydrobupropion, N-desethylamodiaquine, 4′-hydroxydiclofenac, 4′-hydroxymephenytoin, 1′-hydroxybufuralol, 6″-hydroxychlorzoxazone were quantified as markers for CYP1A2, CYP2A6, […], CYP2C8, CYP2C9, CYP2C19, […], CYP2E1, respectively. CYP3A4 inhibition was measured using 2 substrates, measuring the formation of […] (3A4-T), and 1′-hydroxymidazolam (3A4-M). The incubation was carried out in 96 deep well plates each well containing: 179 μL of the master solution (0.2 mg/mL microsomes plus CYP substrate (see below for final substrate concentration and incubation time for the different CYP assays)) in 100 mM phosphate buffer and 1 μL of the compound working solution or vehicle. The final concentrations of the compounds in the assay was 30 μM when using a single dose or 0.1, 0.3, 1, 3, 10 and 30 μM for a dose response.
The incubation plate was placed into a water bath and pre-warmed at 37° C. for 5 minutes before the reactions were started by the addition of 20 μL of 10 mM NADPH solution and incubated at 37° C. for the time listed above. […]

[3] = tested on: MOLM-13 cells; assay: MOLM-13 cell viability (Assay B), Cell Titer-Glo; assay type: cell-based
In short: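 Cells at 1,000 per well in RPMI/10% FBS were exposed to compound (10E-5 to 6E-12 M), with or without 100 μM uridine, for 72 h. Viability was read by CellTiter-Glo luminescence. Duplicates were run, and potency was taken from two independent experiments.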

[4] = tested on: DENV-2; assay: anti-DENV-2 CPE reduction assay in A549 cells (MTS); assay type: cell-based, DENV-2 laboratory-adapted New Guinea C strain
Procedure: as §1, §2, §3

[5] = in vitro

With `COc1ccc(F)c(-n2ncc3c2COC[C@H]3NC(=O)c2ncn3c2CCCC3)c1Cl` (single isomer, unassigned) [Ex-9] the “antiviral activity against ZIKV” value [1] was “demonstrating antiviral activity”, the IC50 ([1]; Zika virus, 72 h, MOI 1, 3 d of infection) was 9.3 ± 2 nM and the “inhibition of human CYPs” value [2] was “No Inhibition”. For the same compound, the IC50 ([3]; Homo sapiens, MOLM-13, 72 hours, bins ≥10 nM-<100 nM and <10 nM, read-out: IC50 MOLM13 inhibition activity) was < 10 nM, the “MOLM13 cell growth and/or viability (FIG. 2)” value ([3]; absence of uridine) was “reduce MOLM13 cell growth and/or viability” and the “effect on MOLM13 cell growth and/or viability on addition of excess uridine (FIG. 2)” value ([3]; presence of 100 μM uridine) was “largely prevented”. The “antiviral activity against DENV-2” value ([4]; A549 cells) was “demonstrating antiviral activity”, the IC50 ([4]; Dengue virus, DENV2, A549, 96 h, read-out: IC50 DENV-2 MTS) was 1.6 ± 1 nM and the hHEPs % remaining ([5]; % remaining at 120 min, 1 μM) was 87%. For the same compound, the half-life at 1 μM ([5]; human, hepatocytes) was > 600 min.
